This note sets out measurements from patent US12539292B2, “BRM targeting compounds and associated methods of use” (Arvinas Operations, Inc., priority 2018, dated 2026).

In the assay the target is T1, BRM (Homo sapiens, UniProt P51531).
T1 construct: In-Cell Western Screen of BRM Degradation in SW1573 Cells; endogenous in cells; host or cells: SW1573
Put plainly: In-cell Western screen of BRM degradation in SW1573 cells (Dmax and DC50). It is filed as cell-based. The settings on record: for Dmax: SW1573, % degraded, when tested at the top concentration of between 0.3 and 10 μM, read-out: BRM Dmax (%); for DC50: target protein degradation, read-out: BRM DC50. The procedure, abridged:
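After adhering overnight, cells received compound for 18-20 hours. They were then washed in cold DPBS, fixed with 4% PFA for 20 min and permeabilized for 30 min. Blocking and fluorescent secondary staining followed before imaging.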

Molecules are shown by their SMILES.

A word on the Dmax: it is the greatest extent of degradation seen. What is called DC50 is the midpoint of the concentration-degradation curve.

T1 sequence (P51531 whole entry): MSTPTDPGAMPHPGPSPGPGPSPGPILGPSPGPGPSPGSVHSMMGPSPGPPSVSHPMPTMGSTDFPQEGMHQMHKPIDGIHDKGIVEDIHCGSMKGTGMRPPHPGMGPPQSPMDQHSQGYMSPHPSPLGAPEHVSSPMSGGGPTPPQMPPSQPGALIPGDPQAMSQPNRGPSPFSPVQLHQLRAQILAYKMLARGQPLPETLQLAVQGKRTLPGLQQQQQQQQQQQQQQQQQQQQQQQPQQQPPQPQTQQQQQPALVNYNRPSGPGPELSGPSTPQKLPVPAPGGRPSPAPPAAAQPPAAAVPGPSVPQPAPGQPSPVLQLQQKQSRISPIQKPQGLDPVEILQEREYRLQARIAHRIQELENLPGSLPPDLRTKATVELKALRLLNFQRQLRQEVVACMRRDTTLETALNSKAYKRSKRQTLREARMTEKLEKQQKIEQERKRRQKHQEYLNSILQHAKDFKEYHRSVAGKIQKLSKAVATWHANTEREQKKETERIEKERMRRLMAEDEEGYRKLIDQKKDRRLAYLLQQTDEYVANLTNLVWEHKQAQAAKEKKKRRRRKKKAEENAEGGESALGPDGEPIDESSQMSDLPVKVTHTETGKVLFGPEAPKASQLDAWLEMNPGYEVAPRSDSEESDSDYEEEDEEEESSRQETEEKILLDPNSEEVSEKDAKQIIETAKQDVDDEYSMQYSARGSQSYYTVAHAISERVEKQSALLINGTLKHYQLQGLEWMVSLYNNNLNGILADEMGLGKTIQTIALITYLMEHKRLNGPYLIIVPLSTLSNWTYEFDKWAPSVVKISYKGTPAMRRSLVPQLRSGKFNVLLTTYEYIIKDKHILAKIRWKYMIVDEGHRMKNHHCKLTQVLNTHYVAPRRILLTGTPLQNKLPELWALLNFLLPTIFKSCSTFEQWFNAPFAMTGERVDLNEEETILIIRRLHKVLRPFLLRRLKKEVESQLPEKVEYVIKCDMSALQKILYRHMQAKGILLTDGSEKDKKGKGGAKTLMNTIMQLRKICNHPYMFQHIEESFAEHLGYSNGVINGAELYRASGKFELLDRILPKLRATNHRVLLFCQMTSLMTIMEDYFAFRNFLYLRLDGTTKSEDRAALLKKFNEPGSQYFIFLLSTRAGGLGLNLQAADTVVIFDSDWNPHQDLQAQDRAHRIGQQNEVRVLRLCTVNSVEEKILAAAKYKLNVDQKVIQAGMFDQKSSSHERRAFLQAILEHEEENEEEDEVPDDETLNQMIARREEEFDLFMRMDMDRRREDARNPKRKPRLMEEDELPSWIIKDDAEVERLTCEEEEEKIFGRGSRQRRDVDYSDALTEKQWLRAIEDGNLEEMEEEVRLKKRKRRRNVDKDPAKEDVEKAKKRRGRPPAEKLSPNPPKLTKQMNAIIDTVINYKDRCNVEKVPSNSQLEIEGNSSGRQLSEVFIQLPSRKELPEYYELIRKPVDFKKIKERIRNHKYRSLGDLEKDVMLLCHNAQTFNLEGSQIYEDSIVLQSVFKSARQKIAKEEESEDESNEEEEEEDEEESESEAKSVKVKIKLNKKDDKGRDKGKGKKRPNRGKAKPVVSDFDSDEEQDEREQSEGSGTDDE

For `Cc1ncsc1-c1ccc([C@H](C)NC(=O)[C@@H]2C[C@@H](O)CN2C(=O)[C@H](c2cc(OCCC3CCN(C(=O)[C@H]4C[C@@H](CN5CCC(n6cc(-c7cc(-c8ccccc8O)nnc7N)cn6)CC5)C4)CC3)no2)C(C)C)cc1` [compound 465, (2S,4R)-1-((S)-2-(3-(2-(1-((1s,3R)-3-((4-(4-(3-amino-6-(2-hydroxyphenyl)pyridazin-4-yl)-1H-pyrazol-1-yl)piperidin-1-yl)methyl)cyclobutane-1-carbonyl)piperidin-4-yl)ethoxy)isoxazol-5-yl)-3-methylbutanoyl)-4-hydroxy-N-((S)-1-(4-(4-methylthiazol-5-yl)phenyl)ethyl)pyrrolidine-2-carboxamide], the Dmax was above 75% and the DC50 is below 2.5 nM.
Regarding `Cc1ncsc1-c1ccc([C@H](C)NC(=O)[C@@H]2C[C@@H](O)CN2C(=O)[C@@H](c2cc(OCCC3CCN(C(=O)[C@H]4C[C@@H](CN5CCC(n6cc(-c7cc(-c8ccccc8O)nnc7N)cn6)CC5)C4)CC3)no2)C(C)C)cc1` [compound 466, (2S,4R)-1-((R)-2-(3-(2-(1-((1s,3S)-3-((4-(4-(3-amino-6-(2-hydroxyphenyl)pyridazin-4-yl)-1H-pyrazol-1-yl)piperidin-1-yl)methyl)cyclobutane-1-carbonyl)piperidin-4-yl)ethoxy)isoxazol-5-yl)-3-methylbutanoyl)-4-hydroxy-N-((S)-1-(4-(4-methylthiazol-5-yl)phenyl)ethyl)pyrrolidine-2-carboxamide], the DC50 was above 30 nM.
On to `Cc1ncsc1-c1ccc([C@H](C)NC(=O)[C@@H]2C[C@@H](O)CN2C(=O)[C@H](c2cc(OCCC3CCN(C(=O)[C@H]4C[C@H](CN5CCC(n6cc(-c7cc(-c8ccccc8O)nnc7N)cn6)CC5)C4)CC3)no2)C(C)C)cc1` [compound 467, (2S,4R)-1-((S)-2-(3-(2-(1-((1r,3S)-3-((4-(4-(3-amino-6-(2-hydroxyphenyl)pyridazin-4-yl)-1H-pyrazol-1-yl)piperidin-1-yl)methyl)cyclobutane-1-carbonyl)piperidin-4-yl)ethoxy)isoxazol-5-yl)-3-methylbutanoyl)-4-hydroxy-N-((S)-1-(4-(4-methylthiazol-5-yl)phenyl)ethyl)pyrrolidine-2-carboxamide], for which the Dmax was above 75% and the DC50 was below 2.5 nM.
Turning to `Cc1ncsc1-c1ccc([C@H](C)NC(=O)[C@@H]2C[C@@H](O)CN2C(=O)[C@@H](c2cc(OCCC3CCN(C(=O)[C@H]4C[C@H](CN5CCC(n6cc(-c7cc(-c8ccccc8O)nnc7N)cn6)CC5)C4)CC3)no2)C(C)C)cc1` [compound 468, (2S,4R)-1-((R)-2-(3-(2-(1-((1r,3R)-3-((4-(4-(3-amino-6-(2-hydroxyphenyl)pyridazin-4-yl)-1H-pyrazol-1-yl)piperidin-1-yl)methyl)cyclobutane-1-carbonyl)piperidin-4-yl)ethoxy)isoxazol-5-yl)-3-methylbutanoyl)-4-hydroxy-N-((S)-1-(4-(4-methylthiazol-5-yl)phenyl)ethyl)pyrrolidine-2-carboxamide], the DC50 was above 30 nM.
Take `Cc1ncsc1-c1ccc([C@H](C)NC(=O)[C@@H]2C[C@@H](O)CN2C(=O)[C@H](c2cc(N3CCC(OC4CCN(C[C@H]5C[C@H](Oc6cc(N7C8CCC7CN(c7cc(-c9ccccc9O)nnc7N)C8)ccn6)C5)CC4)CC3)no2)C(C)C)cc1` [compound 469, (2S,4R)-1-((2S)-2-(3-(4-((1-(((1r,3r)-3-((4-(3-(3-amino-6-(2-hydroxyphenyl)pyridazin-4-yl)-3,8-diazabicyclo[3.2.1]octan-8-yl)pyridin-2-yl)oxy)cyclobutyl)methyl)piperidin-4-yl)oxy)piperidin-1-yl)isoxazol-5-yl)-3-methylbutanoyl)-4-hydroxy-N-((S)-1-(4-(4-methylthiazol-5-yl)phenyl)ethyl)pyrrolidine-2-carboxamide]: the DC50 was above 30 nM.
With `Cc1ncsc1-c1ccc([C@H](C)NC(=O)[C@@H]2C[C@@H](O)CN2C(=O)[C@H](c2cc(OCCN3CCC(O[C@H]4C[C@H](Oc5cnnc(N6C7CCC6CN(c6cc(-c8ccccc8O)nnc6N)C7)c5)C4)CC3)no2)C(C)C)cc1` [compound 470, (2S,4R)-1-((2S)-2-(3-(2-(4-((1r,3S)-3-((6-(3-(3-amino-6-(2-hydroxyphenyl)pyridazin-4-yl)-3,8-diazabicyclo[3.2.1]octan-8-yl)pyridazin-4-yl)oxy)cyclobutoxy)piperidin-1-yl)ethoxy)isoxazol-5-yl)-3-methylbutanoyl)-4-hydroxy-N-((S)-1-(4-(4-methylthiazol-5-yl)phenyl)ethyl)pyrrolidine-2-carboxamide], the DC50 is above 30 nM.
Consider `Cc1ncsc1-c1ccc([C@H](C)NC(=O)[C@@H]2C[C@@H](O)CN2C(=O)[C@@H](c2cc(OCCN3CCC(O[C@H]4C[C@H](Oc5cnnc(N6C7CCC6CN(c6cc(-c8ccccc8O)nnc6N)C7)c5)C4)CC3)no2)C(C)C)cc1` [compound 471, (2S,4R)-1-((2R)-2-(3-(2-(4-((1r,3R)-3-((6-(3-(3-amino-6-(2-hydroxyphenyl)pyridazin-4-yl)-3,8-diazabicyclo[3.2.1]octan-8-yl)pyridazin-4-yl)oxy)cyclobutoxy)piperidin-1-yl)ethoxy)isoxazol-5-yl)-3-methylbutanoyl)-4-hydroxy-N-((S)-1-(4-(4-methylthiazol-5-yl)phenyl)ethyl)pyrrolidine-2-carboxamide], for which the Dmax was above 75% and the DC50 is below 2.5 nM.
Take `Cc1ncsc1-c1ccc([C@H](C)NC(=O)[C@@H]2C[C@@H](O)CN2C(=O)[C@H](c2cc(N3CCC(CC4CCN(C[C@H]5C[C@H](Oc6cc(N7C8CCC7CN(c7cc(-c9ccccc9O)nnc7N)C8)ccn6)C5)CC4)CC3)no2)C(C)C)cc1` [compound 472, (2S,4R)-1-((2S)-2-(3-(4-((1-(((1r,3r)-3-((4-(3-(3-amino-6-(2-hydroxyphenyl)pyridazin-4-yl)-3,8-diazabicyclo[3.2.1]octan-8-yl)pyridin-2-yl)oxy)cyclobutyl)methyl)piperidin-4-yl)methyl)piperidin-1-yl)isoxazol-5-yl)-3-methylbutanoyl)-4-hydroxy-N-((S)-1-(4-(4-methylthiazol-5-yl)phenyl)ethyl)pyrrolidine-2-carboxamide]: the DC50 is above 30 nM.
In the case of `Cc1ncsc1-c1ccc([C@H](C)NC(=O)[C@@H]2C[C@@H](O)CN2C(=O)[C@@H](c2cc(N3CCC(CC4CCN(C[C@H]5C[C@H](Oc6cc(N7C8CCC7CN(c7cc(-c9ccccc9O)nnc7N)C8)ccn6)C5)CC4)CC3)no2)C(C)C)cc1` [compound 473, (2S,4R)-1-((2R)-2-(3-(4-((1-(((1r,3r)-3-((4-(3-(3-amino-6-(2-hydroxyphenyl)pyridazin-4-yl)-3,8-diazabicyclo[3.2.1]octan-8-yl)pyridin-2-yl)oxy)cyclobutyl)methyl)piperidin-4-yl)methyl)piperidin-1-yl)isoxazol-5-yl)-3-methylbutanoyl)-4-hydroxy-N-((S)-1-(4-(4-methylthiazol-5-yl)phenyl)ethyl)pyrrolidine-2-carboxamide], the Dmax is above 75% and the DC50 is below 2.5 nM.
For `Cc1ncsc1-c1ccc([C@H](C)NC(=O)[C@@H]2C[C@@H](O)CN2C(=O)[C@@H](c2cc(N3CCC(OC4CCN(C[C@H]5C[C@H](Oc6cc(N7C8CCC7CN(c7cc(-c9ccccc9O)nnc7N)C8)ccn6)C5)CC4)CC3)no2)C(C)C)cc1` [compound 474, (2S,4R)-1-((2R)-2-(3-(4-((1-(((1r,3r)-3-((4-(3-(3-amino-6-(2-hydroxyphenyl)pyridazin-4-yl)-3,8-diazabicyclo[3.2.1]octan-8-yl)pyridin-2-yl)oxy)cyclobutyl)methyl)piperidin-4-yl)oxy)piperidin-1-yl)isoxazol-5-yl)-3-methylbutanoyl)-4-hydroxy-N-((S)-1-(4-(4-methylthiazol-5-yl)phenyl)ethyl)pyrrolidine-2-carboxamide], in that order: above 75% and below 2.5 nM.
Consider `Cc1ncsc1-c1ccc([C@H](C)NC(=O)[C@@H]2C[C@@H](O)CN2C(=O)[C@H](c2cc(N3CCC(OC4CCN(C[C@H]5C[C@H](Oc6cc(N7C8CCC7CN(c7cc(-c9ccccc9O)nnc7N)C8)ccn6)C5)CC4)CC3)no2)C(C)C)cn1` [compound 475, (2S,4R)-1-((2S)-2-(3-(4-((1-(((1r,3r)-3-((4-(3-(3-amino-6-(2-hydroxyphenyl)pyridazin-4-yl)-3,8-diazabicyclo[3.2.1]octan-8-yl)pyridin-2-yl)oxy)cyclobutyl)methyl)piperidin-4-yl)oxy)piperidin-1-yl)isoxazol-5-yl)-3-methylbutanoyl)-4-hydroxy-N-((S)-1-(6-(4-methylthiazol-5-yl)pyridin-3-yl)ethyl)pyrrolidine-2-carboxamide], for which the DC50 was above 30 nM.
As for `Cc1ncsc1-c1ccc([C@H](C)NC(=O)[C@@H]2C[C@@H](O)CN2C(=O)[C@@H](c2cc(N3CCC(OC4CCN(C[C@H]5C[C@H](Oc6cc(N7C8CCC7CN(c7cc(-c9ccccc9O)nnc7N)C8)ccn6)C5)CC4)CC3)no2)C(C)C)cn1` [compound 476, (2S,4R)-1-((2R)-2-(3-(4-((1-(((1r,3r)-3-((4-(3-(3-amino-6-(2-hydroxyphenyl)pyridazin-4-yl)-3,8-diazabicyclo[3.2.1]octan-8-yl)pyridin-2-yl)oxy)cyclobutyl)methyl)piperidin-4-yl)oxy)piperidin-1-yl)isoxazol-5-yl)-3-methylbutanoyl)-4-hydroxy-N-((S)-1-(6-(4-methylthiazol-5-yl)pyridin-3-yl)ethyl)pyrrolidine-2-carboxamide], the Dmax was above 75% and the DC50 was below 2.5 nM.
